# Experimental data reported in US11865157B2, “Compositions and methods of targeting cancer stem cells” (University of Houston System, priority 2016, dated 2024).
# “Also recorded” adds a separate entry of the source. Numbered stars: 1 amine (or outer) side, 2 acyl side, 3 side chain; on linkers, the order of the positions; unused ones are H or OH. Bridge positions count the residues as written; N and C are the ends. Square brackets hold non-standard residues; d marks the D form. Peptide text beside a SMILES is read from it. I, II: the chains in the order shown. Gly(N-piperonyl) = O=C(O)CNCc1ccc2c(c1)OCO2; X1 = CC(c1ccccc1)N(CC(=O)[*:2])[*:1]; Nlys = NCCCCNCC(=O)O; Nme = COCCNCC(=O)O
# How the values were obtained:
# Type in all cases: cell-based
# unsorted H358 cells [1] = test: MTS cell-proliferation assay on unsorted cells
# Method: Further experiments were conducted to evaluate how PCS2 affects the proliferation of unsorted cancer cell populations. The standard MTS cell-proliferation assay was performed on unsorted H358 cells (known to contain 5-15% of CSCs) and measured proliferation rates over 6 days, at concentrations ranging from 100 nM to 100 μM of PCS2D1.
# H358 unsorted cells = test: Scratch (wound healing) assay; conditions: 10 μM and higher, 24 hours
# Method: Another stem-cell-associated phenotype is the capacity of stem cells to migrate and repair gaps in a tissue or cell culture. To determine if this capacity is affected by PCS2D1, a scratch (would healing) assay was performed on H358 cells after 24 hour treatment of 0, 0.3, 1, 3 10, 30 or 100 μM of PCS2D1. Each well of confluent H358 unsorted cells was scratched using a 1000 μL pipet tip, washed, then treated with PCS2D1 for 24 hours. Each well was then stained, and the average area of the remaining scratch was calculated from a microscope viewing window near the center of the well.
# H358 ALDH− cells = test: MTS survival assay on sorted cells
# Method: To verify that PCS2-treatment has a direct effect on the survival of CSCs, an MTS survival assay was performed on sorted H358 cells. The assay is based on the reduction of MTS tetrazolium compound by viable cells to generate a colored formazan product that is soluble in cell culture media. This conversion is thought to be carried out by NAD(P)H-dependent dehydrogenase enzymes in metabolically active cells. The formazan dye produced by viable cells was quantified by measuring the absorbance at 490-500 nm. H358 cells were stained using the ALDEFluor, then the ALDH+ cells were isolated by the MD Anderson Flow Cytometry and Cell Sorting core. The sorted ALDH+ cells were treated with 1 nM to 100 μM of PCS2D1 for 24 hours, and then the relative amount of surviving cells was determined by MTS. The number of cells in the ALDH+ fraction decreased under the treatment of PCS2D1, while ALDH^− cells were unaffected (FIG. 10). […] Furthermore, this peptoid is still at the initial stage of development and further modifications can be made to optimize and increase the potency.
# To verify that PCS2-treatment has a direct effect on the survival of CSCs, an MTS survival assay was performed on sorted H358 cells as described in Example 4. The number of cells in the ALDH+ fraction decreased under the treatment of PCS2D1, while ALDH^− cells were unaffected (FIG. 21). The IC50 was around 2 μM. […]
# H358 cells = test: Clonogenicity assay under treatment; conditions: 2 weeks
# Method: To further validate that PCS2D1 inhibiting CSCs, the effects of PCS2D1 against a stem-cell-associated phenotype were studied with regards to the capacity to form colonies from a single cell by using the clonogenicity assay. About 300 cells were plated onto 35 mm cell culture plates with either 0, 1, 10, 30, or 100 μM of PCS2D1, and allowed to grow for 2 weeks. After staining with crystal violet, both the number of colonies and the overall morphology of the colonies were evaluated.
# (§1) The clonogenicity assay was repeated with H358 cells, 500 cells/well, using 0, 10, 30 and 100 μM PCS2 treatment over 2 weeks. […] To confirm that this was due to the specific targeting on CSCs, the clonogenicity assay was performed again over 8 days, with the treatment performed from day 7 to 8 instead, to allow the colonies to establish. This was done alongside control cells plated on chamber slides and then grown under the same conditions.
# H358 colonies = test: Variation of the clonogenicity assay: treatment of established colonies, crystal violet and ALDEFluor staining
# Method: Another set of experiments were designed to evaluate if differentiated cells from CSCs were targeted by PCS2D1 as well. A variation of the clonogenicity assay was performed, where about 300 unsorted H358 cells were plated to 35 mm plates each and allowed to form colonies for 7 days. After that time, the colonies were treated with either 0, 1, 10, 30, or 100 μM of PCS2D1 for 24 hours, and then stained with crystal violet. The colonies were examined under a microscope. […] To determine if the cells lost are CSCs or the differentiated cells, ALDEFluor staining was performed against some of the colonies at 0 and 100 μM treatment.
# as §1
# unsorted H358 cells [2] = test: Expression of CSC markers after treatment; conditions: 100 μM, after 96 hours of treatment
smiles,measurement,setting,value
COCCNCC(=O)N(CCCCN)CC(=O)N(CC(=O)N(CC(=O)N(CCCCN)CC(=O)N[C@@H](CCCCN)C(=O)N[C@H](CCCCN)C(=O)N[C@@H](CCSC)C(=O)NCCCC[C@H](NC(=O)[C@H](CCSC)NC(=O)[C@@H](CCCCN)NC(=O)[C@H](CCCCN)NC(=O)CN(CCCCN)C(=O)CN(C(=O)CN(Cc1ccc2c(c1)OCO2)C(=O)CN(CCCCN)C(=O)CNCCOC)C(C)c1ccccc1)C(N)=O)C(C)c1ccccc1)Cc1ccc2c(c1)OCO2 (stereo partly drawn) [PCS2D1] (I: H-[Nme][Nlys][Gly(N-piperonyl)][X1][Nlys]K[dK]MK-NH2 / II: H-[Nme][Nlys][Gly(N-piperonyl)][X1][Nlys]K[dK]M; amide I:9-II:C; N-terminus and C-terminus assumed),overall growth of the H358 cell line,"unsorted H358 cells [1]; 30 μM and higher, by day 2",significantly decreased
same,growth of the H358 cell line,"unsorted H358 cells [1]; 100 μM, over 6 days",no significant growth
same,migration (area of remaining scratch),H358 unsorted cells,migration was significantly inhibited
same,effect on ALDH− cells,H358 ALDH− cells,unaffected
same,morphology of the colonies,H358 cells; 10 μM,significantly more dispersed colonies
same,colonies formed,"H358 cells; about 300 cells, 30 and 100 μM",significant decrease in colonies formed
same,ALDH fluorescence of colonies,"H358 colonies; 100 μM, ALDEFluor staining",no significant fluorescence; also recorded: complete loss of ALDH^+ cells
same,ALDH fluorescent cell number,"H358 colonies; 10-30 μM, Aldefluor assay",reduction in fluorescent cell number
same,loss of cells from the colony center,"H358 colonies; colonies grown 7 days, then 24 hours treatment at 10 μM and higher",significant loss of cells from the colony center; also recorded: significant loss of “central” cells
same,expression of ALDH1A3,unsorted H358 cells [2],significant drop
same,expression of PLEC,unsorted H358 cells [2],significant drop
same,expression of SOX2,unsorted H358 cells [2],significant drop
